According to patent US10159636B2, “Cosmetic composition containing acetylated oligoglucuronans” (Sederma, S.A.S., priority 2008, dated 2018):
Marks after values point to notes of the source that are not given here.

Key:
[1] = target: serum albumin incubated with fructose (Homo sapiens, UniProt P02768); assay: Anti-glycation efficacy: inhibition of AGE (FFI compounds) production, fluorescence; type: biochemical; conditions: 0.03%; serum albumin 2% + 100 mM fructose, pH 7.4, 50° C., 1 week; N=2
Description: Principle: Non-enzymatic glycation between a protein and a reducing sugar is a slow spontaneous reaction which can be accelerated by temperature. An in vitro study model consisting of serum albumin incubated with fructose for one week was used. Glycation is recorded from the formation of fluorescent compounds, generally pentosides or FFI (furoyl-furanyl-imidazoles).
Protocol: In our test, serum albumin (2%) and 100 mM fructose are incubated in a pH 7.4 phosphate buffer at 50° C. for 1 week. […] The glycation reference value (Control) for the glycation after 1 week is determined from the serum albumin and fructose incubation. The positive glycation inhibition Control is obtained by incubating in the presence of aminoguanidine 0.03% and the test incubations are performed in the presence of 9.1% acetylated oligoglucuronans at different concentrations.
Results: For each fluorescence value measured the percentage change is calculated compared to the Control. The results shown in the table below are the mean values from N=2 tests.

[2] = system: laminin synthesis by keratinocytes; assay: Assay of laminin synthesis by keratinocytes (sandwich ELISA); type: cell-based, human; conditions: for Conclusion (laminin by keratinocytes) / % Change/untreated cells (laminin by keratinocytes): Table 9; for % Change/untreated cells (laminin by keratinocytes): n = 5
Description: Human keratinocytes are inseminated into 24 well plates. After anchoring for 24 h, TGF-β1 and 9.1% acetylated oligoglucuronans are placed in contact with the cells for 72 h. The culture supernatants are removed and the amount of laminin is quantified by sandwich ELISA.
TGF-β1 is used as a positive control for laminin synthesis.
(§1) Analysis of variance is performed on the data (treated cases compared to untreated cases). If variances are equal, a Student t test for paired series is then performed on the mean values.
(§2) Human keratinocytes are inseminated into well plates. After anchoring for 24 h, TGF-β1, oligoglucuronans I, oligoglucuronans II, oligoglucuronans III, glucuronic acid and galacturonic acid are placed in contact with the cells for 72 h. The culture supernatants are removed and the amount of laminin is quantified by sandwich ELISA.

[3] = system: hyaluronic acid synthesis by keratinocytes; assay: Assay of hyaluronic acid synthesis by keratinocytes (sandwich ELISA); type: cell-based, human; conditions: for % Change/untreated cells (hyaluronic acid synthesis by keratinocytes): 72 h
Description: Human keratinocytes are inseminated. After anchoring for 24 h, retinoic acid and 9.1% acetylated oligoglucuronans are placed in contact with the cells for 72 h. The culture supernatants are removed and the amount of hyaluronic acid is quantified by sandwich ELISA.
Retinoic acid is used at the positive control for hyaluronic acid synthesis.
as §1
as §2, with “retinoic acid,” for “TGF-β1,”, “hyaluronic acid” for “laminin”
Retinoic acid is used as a positive control of hyaluronic acid.

[4] = system: elastin synthesis by fibroblasts; assay: Assay of elastin synthesis by fibroblasts (sandwich ELISA of culture supernatants); type: cell-based, human
Description: Normal human fibroblasts are inseminated. After anchoring for 24 h, TGF-β1 and 9.1% acetylated oligoglucuronans are placed in contact with the cells for 72 h. The culture supematants are removed and the amount of elastin is quantified by sandwich ELISA.
TGF-β1 is used as the positive control for elastin synthesis.
as §1
Normal human fibroblasts are inseminated. After anchoring for 24 h, TGF-β1, oligoglucuronans I, oligoglucuronans II, oligoglucuronans IIII, glucuronic acid and galacturonic acid are placed in contact with the cells for 72 h. The culture supernatants are removed and the amount of elastin present is quantified by sandwich ELISA.
TGF-β1 is used as a positive control for elastin.

[5] = Eq 0.04% oligoglucuronans 1, 72 h
[6] = Eq 0.06% oligoglucuronans 1, 72 h
[7] = Table 8, Eq 0.04% oligoglucuronans I, n = 5
[8] = Table 8, Eq 0.06% oligoglucuronans I, n = 5
[9] = Table 7, Eq 0.04% oligoglucuronans I, 72 h, n = 5

serum albumin incubated with fructose, sequence (P02768 25-609): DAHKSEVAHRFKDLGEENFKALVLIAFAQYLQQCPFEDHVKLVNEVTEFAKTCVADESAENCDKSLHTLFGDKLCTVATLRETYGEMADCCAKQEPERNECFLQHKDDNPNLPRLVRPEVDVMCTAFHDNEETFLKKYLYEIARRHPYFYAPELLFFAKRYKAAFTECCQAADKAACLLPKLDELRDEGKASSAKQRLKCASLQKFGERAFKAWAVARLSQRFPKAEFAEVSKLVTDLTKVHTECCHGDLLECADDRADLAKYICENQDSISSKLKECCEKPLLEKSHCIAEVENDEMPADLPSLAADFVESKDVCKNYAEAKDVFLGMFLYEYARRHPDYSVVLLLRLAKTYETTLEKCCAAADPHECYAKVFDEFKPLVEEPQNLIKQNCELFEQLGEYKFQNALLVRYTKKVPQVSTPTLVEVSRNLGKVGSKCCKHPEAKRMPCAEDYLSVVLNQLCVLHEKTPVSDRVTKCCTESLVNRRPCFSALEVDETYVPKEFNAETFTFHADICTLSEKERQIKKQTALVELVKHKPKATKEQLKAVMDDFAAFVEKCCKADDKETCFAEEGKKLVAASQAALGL

Compound | Conclusion (laminin by keratinocytes) [2] | % Change/untreated cells (laminin by keratinocytes) [2, 5] | % Change/untreated cells (laminin by keratinocytes) [2, 6] [%] | Conclusion (hyaluronic acid synthesis by keratinocytes) ([3]; Table 8) | % Change/untreated cells (hyaluronic acid synthesis by keratinocytes) [3, 7] | % Change/untreated cells (hyaluronic acid synthesis by keratinocytes) [3, 8] | Conclusion (elastin synthesis by fibroblasts) ([4]; Table 7) | % Change/untreated cells (elastin synthesis by fibroblasts) [4, 9] | also measured
N=C(N)NN [Aminoguanidine, aminoguanidine] | – | – | – | – | – | – | – | – | Reduction in AGE % compared to Control [1]: 67 +/− 2%
O=C[C@H](O)[C@@H](O)[C@@H](O)[C@H](O)C(=O)O [Galacturonic acid] | =0 | +1% | −4 | =0 | +7% | +12% | =0 | −1% | –
TGF-β1: Positive control for elastin (fibroblast) and laminin (keratinocytes) | Positive | – | – | – | – | – | Positive | – | % Change/untreated cells (laminin synthesis by keratinocytes) ([2]; Table 3, 10 ng/mL, 72 h, N = 3): +291%*; % Change/untreated cells (laminin by keratinocytes) ([2]; 10 ng/mL, 72 h): +255%*; % Change/untreated cells (elastin synthesis by fibroblasts) ([4]; Table 1, 10 ng/mL, 72 h contact, N = 2): +122%*; % Change/untreated cells (elastin synthesis by fibroblasts) ([4]; Table 7, 10 ng/mL, 72 h, n = 5): +106%*
O=C[C@H](O)[C@@H](O)[C@H](O)[C@H](O)C(=O)O [Glucuronic acid] | =0 | −7% | −12 | =0 | +10% | +2% | =0 | +32% | –
CC1=C(/C=C/C(C)=C/C=C/C(C)=C/C(=O)O)C(C)(C)CCC1 [Retinoic acid] | – | – | – | – | – | – | – | – | % Change/untreated cells (hyaluronic acid synthesis by keratinocytes) ([3]; Table 2, 1 μM, N = 3): +144%*; % Change/untreated cells (hyaluronic acid synthesis by keratinocytes) ([3]; Table 8, 1 μM, n = 5): +136%*
